We go through 12 compounds from patent US11136296B2, “Substituted N-arylethyl-2-arylquinoline-4-carboxamides and use thereof” (Bayer Aktiengesellschaft, priority 2017, dated 2021).

As a reminder, the IC50 is the concentration that gives 50% inhibition.

For one assay, the target named is FP receptor (Homo sapiens (Human), UniProt P43088). The assay can be described thus: In vitro test of inhibition of human FP receptor activity (PGF2α-induced calcium flux in FP-expressing CHEM1 cells). It is filed as cell-based. Conditions: PGF2α-induced (2 nM) calcium flux in FP-expressing CHEM1 cells; some as mean values from multiple determinations. The text has this:
Table 1 below lists the IC50 values from this assay for individual working examples of the invention (some as mean values from multiple independent individual determinations): […]
(In general: Calcium assays in cells follow changes in intracellular calcium, usually with a dye or a luminescent sensor.)

The subject of assay [1] is fluprostenol-induced mechanical sensitivity. The assay can be described thus: Effects of FP antagonists on mechanical sensitivity (von Frey test, fluprostenol-induced mechanical allodynia). Conditions: for 50% Paw Response Threshold, mean: Ex. 153 90 mg/kg PO, male ND4 mice; for effect on 50% Paw Response Thresholds compared to vehicle-treated animals: group treated with […] fluprostenol, oral 90 mg/kg. It is filed as in vivo, mouse. As to the method: B-24. Effects of FP Antagonists on Mechanical Sensitivity (Peripheral, Mouse)
Mechanical allodynia was examined using the von Frey test on the injected and uninjected rear paws several times after the injection.
Mechanical allodynia was measured with […] (Stölting©; Wood Dale, Ill., USA) having different stiffness (0.04; 0.07; 0.16; 0.4; 1.0. 4.0 and 8.0 g) by the up-down method (Chaplan et al., J. Neurosci. Meth. 1994, 53, 56-63). Intact male ND4 mice (30 g, 10 animals per group) were placed in individual acrylic chambers on a metal grid surface, and were allowed to get used to their environment for at least 15 minutes before the testing. Each filament was pressed with sufficient force at right angles to the underside of the paw, in order to cause slight bending against the paw, and was held for about 6 seconds or until a positive response was registered (paw quickly withdrawn). The testing was commenced with the 0.4 g filament. If the paw was not withdrawn, the next strongest stimulus was used. In the case that the paw was withdrawn, the next weakest stimulus was used. This process was repeated until up to 4 responses had been obtained after the initial change in response (no response after positive response or positive response after no response). […] The 50% paw response threshold was calculated using the following formula:
[formula] • Xf=value (in logarithmic units) of the last von Frey filament used • k=table value for the pattern of positive/negative responses (see Chaplan et al., J. Neurosci. Meth. 1994, 53, 56-63, Annex 1, page 62) • δ=average difference (in logarithmic units) between the stimuli
The mean and […] of the mean (SEM) was determined for each paw for each treatment group at each time point.
In order to assess the analgesic effect of an FP antagonist on fluprostenol-induced mechanical sensitivity, the test substance from Ex. 153 (90 mg/kg) was administered 2 hours before and 8 and 22 hours after the injection of fluprostenol. Ipsilateral and contralateral 50% paw response thresholds were examined prior to the administration of fluprostenol and 0.5, 2, 6 and 24 h after the administration.

FP receptor, sequence (P43088 whole entry): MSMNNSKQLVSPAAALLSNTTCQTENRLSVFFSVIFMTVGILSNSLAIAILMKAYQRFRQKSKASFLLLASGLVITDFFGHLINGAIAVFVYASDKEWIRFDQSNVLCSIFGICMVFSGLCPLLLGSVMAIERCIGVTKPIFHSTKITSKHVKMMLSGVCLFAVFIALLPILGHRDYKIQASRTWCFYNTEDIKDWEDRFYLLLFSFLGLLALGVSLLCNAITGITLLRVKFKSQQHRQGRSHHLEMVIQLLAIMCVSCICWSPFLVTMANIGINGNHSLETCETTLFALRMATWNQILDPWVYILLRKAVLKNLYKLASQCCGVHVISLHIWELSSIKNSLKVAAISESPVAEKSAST

Regarding `Cc1c(-c2ccccc2)nc2ccc(Br)cc2c1C(=O)NCC(CCC(=O)O)c1ccccc1Cl` (single isomer, unassigned; (+)) [Ex. 153, (+)-5-{[(6-Bromo-3-methyl-2-phenylquinolin-4-yl)carbonyl]amino}-4-(2-chlorophenyl)pentanoic Acid], the half-maximal inhibitory concentration (IC50) on FP receptor was found to be 9 nM. The “50% Paw Response Threshold, mean” value is reported as 2.65 g in assay [1] (Group 2: fluprostenol ~[…] IPL, 0.5 h); 2.403 g in assay [1] (Group 2: fluprostenol ~[…] IPL, 2 h); 1.89 g in assay [1] (Group 2: fluprostenol ~[…] IPL, 6 h); 3.245 g in assay [1] (Group 2: fluprostenol ~[…] IPL, 24 h); 4.421 g in assay [1] (Group 2: fluprostenol ~[…] IPL, BL (baseline)); 0.728 g in assay [1] (Group 4: fluprostenol ~[…] IPL, 0.5 h). For the same compound, the “50% Paw Response Threshold, mean” value was 0.716 g in assay [1] (Group 4: fluprostenol ~[…] IPL, 2 h); 1.57 g in assay [1] (Group 4: fluprostenol ~[…] IPL, 6 h); 1.683 g in assay [1] (Group 4: fluprostenol ~[…] IPL, 24 h); 4.215 g in assay [1] (Group 4: fluprostenol ~[…] IPL, BL (baseline)). Further, the “effect on 50% Paw Response Thresholds compared to vehicle-treated animals” value in assay [1] (0.5 hours after the fluprostenol injection) is given as “increased the “50% Paw Response Thresholds” 0.5 hours after the fluprostenol injection significantly”; in assay [1] (24 hours after the fluprostenol injection), “increased the “50% Paw Response Thresholds” 24 hours after the fluprostenol injection significantly”.

`C#Cc1ccc2nc(-c3ccccc3)c(C)c(C(=O)NCC(CCC(=O)O)c3ccccc3Cl)c2c1` (single isomer, unassigned; (-)) [Example 219, (−)-4-(2-Chlorophenyl)-5-{[(6-ethynyl-3-methyl-2-phenylquinolin-4-yl)carbonyl]amino}pentanoic Acid]: the IC50 at FP receptor stood at 10 nM.

As to `O=C(O)CCC(CNC(=O)c1c(Cl)c(-c2ccccc2)nc2ccc(Br)cc12)c1c(F)ccc(F)c1Cl` (single isomer, unassigned; (-)) [Example 222, (−)-5-{[(6-Bromo-3-chloro-2-phenylquinolin-4-yl)carbonyl]amino}-4-(2-chloro-3,6-difluorophenyl)pentanoic Acid], the concentration for half-maximal inhibition (IC50) at FP receptor came to 0.96 nM.

For `Cc1c(-c2ccccc2)nc2ccc(Br)cc2c1C(=O)NCC(CCC(=O)O)c1c(F)cccc1C(F)(F)F` (single isomer, unassigned; (-)) [Example 227, (−)-5-{[(6-Bromo-3-methyl-2-phenylquinolin-4-yl)carbonyl]amino}-4-[2-fluoro-6-(trifluoromethyl)phenyl]pentanoic Acid], at FP receptor, the half-maximal inhibitory concentration (IC50) came out at 1.6 nM.

Take `Cc1c(-c2ccccc2)nc2ccc(Br)cc2c1C(=O)NCC(CCC(=O)O)c1c(F)c(F)cc(F)c1F` (single isomer, unassigned; (-)) [Example 229, (−)-5-{[(6-Bromo-3-methyl-2-phenylquinolin-4-yl)carbonyl]amino}-4-(2,3,5,6-tetrafluorophenyl)pentanoic Acid]: the half-maximal inhibitory concentration (IC50) on FP receptor amounted to 2.7 nM.

As for `Cc1c(-c2ccccc2)nc2ccc(Br)cc2c1C(=O)NCC(CCC(=O)O)c1c(Cl)ccc(Cl)c1Cl` (single isomer, unassigned; (-)) [Example 236, (−)-5-{[(6-Bromo-3-methyl-2-phenylquinolin-4-yl)carbonyl]amino}-4-(2,3,6-trichlorophenyl)pentanoic Acid], the IC50 at FP receptor was 2 nM.

As for `Cc1c(-c2ccccc2)nc2ccc(Br)cc2c1C(=O)NCC(C)(CCCC(=O)O)c1ccccc1Cl` (single isomer, unassigned; (-)) [Example 241, (−)-6-{[(6-Bromo-3-methyl-2-phenylquinolin-4-yl)carbonyl]amino}-5-(2-chlorophenyl)-5-methylhexanoic Acid], the IC50 on FP receptor was found to be 68 nM.

Turning to `Cc1c(-c2ccccc2)nc2ccc(Br)cc2c1C(=O)NCC(C)(CCCC(=O)O)c1ccccc1` (single isomer, unassigned; (-)) [Example 244, (−)-6-{[(6-Bromo-3-methyl-2-phenylquinolin-4-yl)carbonyl]amino}-5-methyl-5-phenylhexanoic Acid], at FP receptor, the half-maximal inhibitory concentration (IC50) worked out at 20 nM.

As to `COc1ccccc1C(CNC(=O)c1c(C)c(-c2ccccc2)nc2ccc(Br)cc12)N1CCC(C(=O)O)C1` (stereo not drawn) [Example 246, 1-[2-{[(6-Bromo-3-methyl-2-phenylquinolin-4-yl)carbonyl]amino}-1-(2-methoxyphenyl)ethyl]pyrrolidine-3-carboxylic Acid], at FP receptor, the IC50 worked out at 94 nM.

In the case of `COc1ccccc1[C@H](CNC(=O)c1c(C)c(-c2ccccc2)nc2ccc(Br)cc12)N1CCC(C(=O)O)C1` (stereo partly drawn) [compound 247], the IC50 at FP receptor came out at 7.2 nM.

`COc1ccccc1[C@@H](CNC(=O)c1c(C)c(-c2ccccc2)nc2ccc(Br)cc12)N1CCC(C(=O)O)C1` (stereo partly drawn) [compound 248]: the IC50 at FP receptor came to 13 nM.

Take `Cc1c(-c2ccccc2)nc2ccc(Br)cc2c1C(=O)NCC(CCC(=O)O)c1ccccc1F` (stereo not drawn) [compound 252]: at FP receptor, the IC50 stood at 14 nM.
